SMILES strings stand for the structures.

A word on the melting point: it is the temperature, or range, at which the solid turns liquid.

`CCOC(=O)C1CCN(Cc2ccc(N/C(=C3\C(=O)Nc4ccc([N+](=O)[O-])cc43)c3ccccc3)cc2)CC1` [Example 176, (Z)-3-{1-[4-(4-ethoxycarbonyl-piperidinomethyl)-phenylamino]-1-phenyl-methylidene}-5-nitro-2-indolinone] showed a melting point of 194 °C.

`O=C1Nc2ccc([N+](=O)[O-])cc2/C1=C(/Nc1ccc(CN2CCC(C(=O)O)CC2)cc1)c1ccccc1` [Example 177, (Z)-3-{1-[4-(4-carboxypiperidinomethyl)-phenylamino]-1-phenyl-methylidene}-5-nitro-2-indolinone] had a melting point of 207 °C.

On to `CCOC(=O)CNCCc1ccc(N/C(=C2\C(=O)Nc3ccc([N+](=O)[O-])cc32)c2ccccc2)cc1` [Example 178, (Z)-3-{1-[4-(2-ethoxycarbonylmethylamino-ethyl)-phenylamino]-1-phenyl-methylidene}-5-nitro-2-indolinone], for which the melting point was 139 to 140 °C.

As for `COC(=O)Cc1ccc(N/C(=C2\C(=O)Nc3ccc([N+](=O)[O-])cc32)c2ccccc2)cc1` [Example 180, (Z)-3-[1-(4-methoxycarbonylmethyl-phenylamino)-1-phenyl-methylidene]-5-nitro-2-indolinone], the melting point lay in the range of 238 to 240 °C.

In the case of `CS(=O)(=O)Nc1cccc(N/C(=C2\C(=O)Nc3ccccc32)c2ccccc2)c1` [Example 183, (Z)-3-[1-(3-methylsulphonylamino-phenylamino)-1-phenyl-methylidene]-2-indolinone], the melting point is 275 °C.

Regarding `CN(c1cccc(N/C(=C2\C(=O)Nc3ccccc32)c2ccccc2)c1)S(C)(=O)=O` [Example 184, (Z)-3-{1-[3-(N-methyl-N-methylsulphonyl-amino)-phenylamino]-1-phenyl-methylidene}-2-indolinone], the melting point amounted to 261 °C.

On to `CS(=O)(=O)Nc1ccc(N/C(=C2\C(=O)Nc3ccccc32)c2ccccc2)cc1` [Example 185, (Z)-3-[1-(4-methylsulphonylamino-phenylamino)-1-phenyl-methylidene]-2-indolinone], for which the melting point lay within 299 to 301 °C.

For the compound `CN(c1ccc(N/C(=C2\C(=O)Nc3ccccc32)c2ccccc2)cc1)S(C)(=O)=O` [Example 186, (Z)-3-{1-[4-(N-methyl-N-methylsulphonyl-amino)-phenylamino]-1-phenyl-methylidene}-2-indolinone], the melting point is 269 °C.

Turning to `CS(=O)(=O)N(CC#N)c1ccc(N/C(=C2\C(=O)Nc3ccccc32)c2ccccc2)cc1` [Example 187, (Z)-3-{1-[4-(N-cyanomethyl-N-methylsulphonyl-amino)-phenyl-amino]-1-phenyl-methylidene}-2-indolinone], the melting point was 266 to 268 °C.

Regarding `CS(=O)(=O)N(CCN1CCOCC1)c1ccc(N/C(=C2\C(=O)Nc3ccccc32)c2ccccc2)cc1` [Example 189, (Z)-3-{1-[4-(N-(2-morpholinoethyl)-N-methylsulphonyl-amino)-phenylamino]-1-phenyl-methylidene}-2-indolinone], the melting point lay within 249 to 250 °C.

`CS(=O)(=O)N(CC(N)=O)c1ccc(N/C(=C2\C(=O)Nc3ccccc32)c2ccccc2)cc1` [Example 191, (Z)-3-{1-[4-(N-aminocarbonylmethyl-N-methylsulphonyl-amino)-phenylamino]-1-phenyl-methylidene}-2-indolinone]: the melting point is 276 to 278 °C.

Regarding `CNC(=O)CN(c1ccc(N/C(=C2\C(=O)Nc3ccccc32)c2ccccc2)cc1)S(C)(=O)=O` [Example 192, (Z)-3-{1-[4-(N-methylaminocarbonylmethyl-N-methylsulphonyl-amino)-phenylamino]-1-phenyl-methylidene}-2-indolinone], the melting point was in the range of 268 to 270 °C.

Regarding `CN(C)C(=O)CN(c1ccc(N/C(=C2\C(=O)Nc3ccccc32)c2ccccc2)cc1)S(C)(=O)=O` [Example 193, (Z)-3-{1-[4-(N-dimethylaminocarbonylmethyl-N-methylsulphonylamino)-phenylamino]-1-phenyl-methylidene}-2-indolinone], the melting point lay in the range of 260 to 262 °C.

Take `CN(C)CCNC(=O)CN(c1ccc(N/C(=C2\C(=O)Nc3ccccc32)c2ccccc2)cc1)S(C)(=O)=O` [Example 194, (Z)-3-{1-[4-(N-(2-dimethylamino-ethylaminocarbonylmethyl)-N-methylsulphonyl-amino)-phenylamino]-1-phenyl-methylidene}-2-indolinone]: the melting point lay in the range of 214 to 216 °C.

As for `CCOC(=O)CCCN(c1ccc(N/C(=C2\C(=O)Nc3ccccc32)c2ccccc2)cc1)S(C)(=O)=O` [Example 195, (Z)-3-{1-[4-(N-(3-ethoxycarbonyl-propyl)-N-methylsulphonyl-amino)-phenylamino]-1-phenyl-methylidene}-2-indolinone], the melting point lay within 265 to 268 °C.

In turn, `CS(=O)(=O)Nc1ccc(N/C(=C2\C(=O)Nc3ccc([N+](=O)[O-])cc32)c2ccccc2)cc1` [Example 196, (Z)-3-[(4-methylsulphonylamino-phenylamino)-1-phenyl-methylidene]-5-nitro-2-indolinone] gave a melting point of 344 to 346 °C.

`CN(c1ccc(N/C(=C2\C(=O)Nc3ccc([N+](=O)[O-])cc32)c2ccccc2)cc1)S(C)(=O)=O` [Example 197, (Z)-3-{1-[4-(N-methyl-N-methylsulphonyl-amino)-phenylamino]-1-phenyl-methylidene}-5-nitro-2-indolinone] returned a melting point of 306 to 308 °C.

In turn, `CCOC(=O)CN(c1ccc(N/C(=C2\C(=O)Nc3ccc([N+](=O)[O-])cc32)c2ccccc2)cc1)S(C)(=O)=O` [Example 198, (Z)-3-{-[4-(N-ethoxycarbonylmethyl-N-methylsulphonyl-amino)-phenylamino]-1-phenyl-methylidene}-5-nitro-2-indolinone] had a melting point of 236 to 238 °C.

The compound `CS(=O)(=O)N(CC(=O)O)c1ccc(N/C(=C2\C(=O)Nc3ccc([N+](=O)[O-])cc32)c2ccccc2)cc1` [Example 199, (Z)-3-{1-[4-(N-carboxymethyl-N-methylsulphonyl-amino)-phenyl-amino]-1-phenyl-methylidene}-5-nitro-2-indolinone] displayed a melting point of 180 to 183 °C.

As for `CN(C)C(=O)CN(c1ccc(N/C(=C2\C(=O)Nc3ccc([N+](=O)[O-])cc32)c2ccccc2)cc1)S(C)(=O)=O` [Example 201, (Z)-3-{1-[4-(N-dimethylaminocarbonylmethyl-N-methylsulphonyl-amino)-phenylamino]-1-phenyl-methylidene}-5-nitro-2-indolinone], the melting point lay within 277 to 280 °C.

Regarding `CN(C)CCN(c1ccc(N/C(=C2\C(=O)Nc3ccc([N+](=O)[O-])cc32)c2ccccc2)cc1)S(C)(=O)=O` [Example 202, (Z)-3-{1-[4-(N-(2-dimethylamino-ethyl)-N-methylsulphonyl-amino)-phenylamino]-1-phenyl-methylidene}-5-nitro-2-indolinone], the melting point fell in the range of 276 to 277 °C.

As for `CS(=O)(=O)N(CCN1CCOCC1)c1ccc(N/C(=C2\C(=O)Nc3ccc([N+](=O)[O-])cc32)c2ccccc2)cc1` [Example 203, (Z)-3-{1-[4-(N-(2-morpholinoethyl)-N-methylsulphonyl-amino)-phenylamino]-1-phenyl-methylidene}-5-nitro-2-indolinone], the melting point is 255 to 257 °C.

In turn, `CN(C)C(=O)CN(c1ccc(N/C(=C2\C(=O)Nc3ccccc32)c2ccccc2)cc1)S(=O)(=O)c1ccccc1` [Example 205, (Z)-3-{1-[4-(N-dimethylaminocarbonylmethyl-N-phenylsulphonyl-amino)-phenylamino]-1-phenyl-methylidene}-2-indolinone] displayed a melting point of 255 to 258 °C.

Consider `Cc1ccc(S(=O)(=O)N(CC(=O)N(C)C)c2ccc(N/C(=C3\C(=O)Nc4ccccc43)c3ccccc3)cc2)cc1` [Example 206, (Z)-3-{1-[4-(N-dimethylaminocarbonylmethyl-N-(p-tolylsulphonyl)-amino)-phenylamino]-1-phenyl-methylidene}-2-indolinone], for which the melting point was in the range of 223 to 226 °C.

In the case of `CN(C)C(=O)CN(c1ccc(N/C(=C2\C(=O)Nc3ccccc32)c2ccccc2)cc1)S(=O)(=O)Cc1ccccc1` [Example 207, (Z)-3-{1-[4-(N-dimethylaminocarbonylmethyl-N-benzylsulphonyl-amino)-phenylamino]-1-phenyl-methylidene}-2-indolinone], the melting point was in the range of 133 to 135 °C.

Compound `CN(C)C(=O)CN(c1ccc(N/C(=C2\C(=O)Nc3ccc([N+](=O)[O-])cc32)c2ccccc2)cc1)S(=O)(=O)c1ccccc1` [Example 209, (Z)-3-{1-[4-(N-dimethylaminocarbonylmethyl-N-phenylsulphonyl-amino)-phenylamino]-1-phenyl-methylidene}-5-nitro-2-indolinone] registered a melting point of 160 to 162 °C.

For the compound `Cc1ccc(S(=O)(=O)N(CC(=O)N(C)C)c2ccc(N/C(=C3\C(=O)Nc4ccc([N+](=O)[O-])cc43)c3ccccc3)cc2)cc1` [Example 210, (Z)-3-{1-[4-(N-dimethylaminocarbonylmethyl-N-(p-tolylsulphonyl)-amino)-phenylamino]-1-phenyl-methylidene}-5-nitro-2-indolinone], the melting point was 198 to 200 °C.

Regarding `Cc1ccc(/C(Nc2ccc(CN(C)C)cc2)=C2/C(=O)Nc3ccccc32)cc1` [Example 211, (Z)-3-[1-(4-dimethylaminomethyl-phenylamino)-1-(p-tolyl)-methylidene]-2-indolinone], the melting point lay in the range of 208 to 209 °C.

In turn, `Cc1ccc(/C(Nc2ccc(CN(C)C)cc2)=C2/C(=O)Nc3ccc([N+](=O)[O-])cc32)cc1` [Example 212, (Z)-3-[1-(4-dimethylaminomethyl-phenylamino)-1-(p-tolyl)-methylidene]-5-nitro-2-indolinone] had a melting point of 274 to 276 °C.

In turn, `Cc1cccc(/C(Nc2ccc(CN(C)C)cc2)=C2/C(=O)Nc3ccccc32)c1` [Example 213, (Z)-3-[1-(4-dimethylaminomethyl-phenylamino)-1-(m-tolyl)-methylidene]-2-indolinone] came in with a melting point of 224 to 226 °C.

`Cc1cccc(/C(Nc2ccc(CN(C)C)cc2)=C2/C(=O)Nc3ccc([N+](=O)[O-])cc32)c1` [Example 214, (Z)-3-[1-(4-dimethylaminomethyl-phenylamino)-1-(m-tolyl)-methylidene]-5-nitro-2-indolinone] returned a melting point of 210 °C.
